Activity calls are given as the source filed them. The calls are words filed in the database; no cut-off is given here.
Assays:
[1] = biological target: T1, Glucagon-like peptide 1 receptor (Homo sapiens, UniProt P43220); test: Binding affinity to GLP-1R (unknown origin) at 5000 nM measured at 30 to 120 mins by HTRF analysis relative to control; conditions: filed as agonist, time 30-120 min
[2] = biological target: T1, Glucagon-like peptide 1 receptor; test: Agonist activity at N-terminal hemagglutinin-tagged human GLP-1R expressed in CHO cells co-transfected with pcDNA3.0 assessed as increase in intracellular cAMP accumulation incubated for 30 mins by microplate reader analysis; format: functional, cell-based
[3] = biological target: T2, hERG (KCNH2) (Homo sapiens, UniProt Q12809); test: Inhibition of hERG at 10 uM at -80 mV holding potential by whole-cell patch clamp analysis relative to control; format: toxicity
T2 sequence (Q12809 whole entry): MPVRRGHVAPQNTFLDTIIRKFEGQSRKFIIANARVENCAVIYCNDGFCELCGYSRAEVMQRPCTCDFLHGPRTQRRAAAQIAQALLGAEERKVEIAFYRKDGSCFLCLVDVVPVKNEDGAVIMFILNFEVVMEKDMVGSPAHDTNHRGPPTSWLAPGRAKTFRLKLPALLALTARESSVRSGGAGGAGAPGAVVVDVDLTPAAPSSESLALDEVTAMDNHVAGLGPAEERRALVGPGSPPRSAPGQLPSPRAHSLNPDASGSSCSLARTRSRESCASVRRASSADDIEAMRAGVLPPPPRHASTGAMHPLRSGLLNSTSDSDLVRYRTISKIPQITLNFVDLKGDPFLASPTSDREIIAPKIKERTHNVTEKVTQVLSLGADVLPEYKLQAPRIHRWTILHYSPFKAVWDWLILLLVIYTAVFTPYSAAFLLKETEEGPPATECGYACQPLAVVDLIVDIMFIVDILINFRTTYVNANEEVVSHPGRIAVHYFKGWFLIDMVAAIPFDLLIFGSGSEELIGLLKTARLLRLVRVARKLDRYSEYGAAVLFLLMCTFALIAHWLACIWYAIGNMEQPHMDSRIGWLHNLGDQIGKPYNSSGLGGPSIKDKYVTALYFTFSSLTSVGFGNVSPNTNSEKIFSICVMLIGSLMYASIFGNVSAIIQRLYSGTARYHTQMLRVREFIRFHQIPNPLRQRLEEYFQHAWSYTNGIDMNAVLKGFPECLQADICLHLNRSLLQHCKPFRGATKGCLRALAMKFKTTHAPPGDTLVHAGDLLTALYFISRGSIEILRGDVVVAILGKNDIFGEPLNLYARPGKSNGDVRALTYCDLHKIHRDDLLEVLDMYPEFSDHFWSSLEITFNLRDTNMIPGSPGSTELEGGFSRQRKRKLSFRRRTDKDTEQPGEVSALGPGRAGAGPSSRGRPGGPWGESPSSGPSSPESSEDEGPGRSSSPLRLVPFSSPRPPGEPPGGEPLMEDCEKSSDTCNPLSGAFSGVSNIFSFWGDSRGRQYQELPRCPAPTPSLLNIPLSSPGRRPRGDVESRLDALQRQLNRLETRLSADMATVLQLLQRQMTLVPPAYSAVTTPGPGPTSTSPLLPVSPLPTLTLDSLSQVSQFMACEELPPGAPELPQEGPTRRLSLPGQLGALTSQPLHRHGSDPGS

[4] = biological target: T1, Glucagon-like peptide 1 receptor; test: Binding affinity to GLP-1R (unknown origin) at 500 nM measured at 30 to 120 mins by HTRF analysis relative to control; conditions: time 30-120 min
[5] = biological target: T2, hERG (KCNH2); test: Inhibition of hERG at 1 uM at -80 mV holding potential by whole-cell patch clamp analysis relative to control; format: toxicity
[6] = in vivo; conditions: Sprague-Dawley, rat, po, 5 mg/kg
[7] = Cmax in Sprague-Dawley rat at 5 mg/kg, po measured up to 24 hrs by LC-MS/MS analysis; format: ADME, organism-based; conditions: in vivo
[8] = Observed apparent oral clearance in Sprague-Dawley rat at 5 mg/kg, po measured up to 24 hrs by LC-MS/MS analysis; format: ADME, organism-based; conditions: in vivo
[9] = AUC (0 to infinity) in Sprague-Dawley rat at 5 mg/kg, po measured up to 24 hrs by LC-MS/MS analysis; format: ADME, organism-based; conditions: in vivo
[10] = Half life in Sprague-Dawley rat at 5 mg/kg, po measured up to 24 hrs by LC-MS/MS analysis; format: ADME, organism-based; conditions: in vivo
[11] = Fraction of the dose absorbed in Sprague-Dawley rat at 5 mg/kg, po measured up to 24 hrs by LC-MS/MS analysis; format: ADME, organism-based; conditions: in vivo, read-out: Fabs
[12] = test system: Rattus norvegicus; test: Antidiabetic activity in human GLP-1R knockin po dosed Sprague-Dawley rat model assessed as increase in glucose-simulated insulin secretion pretreated with compound for 15 mins followed by D-glucose administration and measured after 30 mins by ELISA analysis; format: functional, organism-based; conditions: dose 1-10 mg/kg, time 45.0 min
[13] = Induction of insulin release in human EndoC-betaH5 cells incubated for 1 hr by ELISA analysis; format: functional, cell-based; conditions: EndoC-betaH5, 1 h
[14] = biological target: T3, Glucagon-like peptide 2 receptor (Homo sapiens, UniProt O95838); test: Agonist activity at N-terminal HA-tagged human GLP-2R expressed in CHO cells co-transfected with pcDNA3.0 assessed as effect on cAMP accumulation incubated for 30 mins by microplate reader analysis; format: functional, cell-based
T3 sequence (O95838 whole entry): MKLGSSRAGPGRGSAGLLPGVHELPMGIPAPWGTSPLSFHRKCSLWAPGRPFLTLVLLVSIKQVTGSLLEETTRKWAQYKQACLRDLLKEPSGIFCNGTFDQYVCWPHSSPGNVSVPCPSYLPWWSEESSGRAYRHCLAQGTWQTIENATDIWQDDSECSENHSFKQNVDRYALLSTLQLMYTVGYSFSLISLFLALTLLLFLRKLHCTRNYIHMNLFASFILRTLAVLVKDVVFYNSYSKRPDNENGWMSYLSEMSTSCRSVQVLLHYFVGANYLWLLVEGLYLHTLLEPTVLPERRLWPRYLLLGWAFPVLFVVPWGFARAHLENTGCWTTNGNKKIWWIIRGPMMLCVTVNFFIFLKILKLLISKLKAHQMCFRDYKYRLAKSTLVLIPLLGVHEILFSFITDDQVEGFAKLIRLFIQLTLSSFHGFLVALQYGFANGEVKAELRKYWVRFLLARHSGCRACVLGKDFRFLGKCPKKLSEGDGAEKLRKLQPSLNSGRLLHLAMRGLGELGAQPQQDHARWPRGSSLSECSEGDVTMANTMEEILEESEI

[15] = test system: Rattus norvegicus; test: Antidiabetic activity in human GLP-1R knockin Sprague-Dawley rat model assessed as increase in rate of insulin secretion at 1 to 10 mg/kg, po pretreated with compound for 15 mins by IPGTT analysis; format: functional, organism-based; conditions: dose 1-10 mg/kg
[16] = biological target: T4, Gastric inhibitory polypeptide receptor (Homo sapiens, UniProt P48546); test: Agonist activity at N-terminal HA-tagged human GIPR expressed in CHO cells co-transfected with pcDNA3.0 assessed as effect on cAMP accumulation incubated for 30 mins by microplate reader analysis; format: functional, cell-based
T4 sequence (P48546 whole entry): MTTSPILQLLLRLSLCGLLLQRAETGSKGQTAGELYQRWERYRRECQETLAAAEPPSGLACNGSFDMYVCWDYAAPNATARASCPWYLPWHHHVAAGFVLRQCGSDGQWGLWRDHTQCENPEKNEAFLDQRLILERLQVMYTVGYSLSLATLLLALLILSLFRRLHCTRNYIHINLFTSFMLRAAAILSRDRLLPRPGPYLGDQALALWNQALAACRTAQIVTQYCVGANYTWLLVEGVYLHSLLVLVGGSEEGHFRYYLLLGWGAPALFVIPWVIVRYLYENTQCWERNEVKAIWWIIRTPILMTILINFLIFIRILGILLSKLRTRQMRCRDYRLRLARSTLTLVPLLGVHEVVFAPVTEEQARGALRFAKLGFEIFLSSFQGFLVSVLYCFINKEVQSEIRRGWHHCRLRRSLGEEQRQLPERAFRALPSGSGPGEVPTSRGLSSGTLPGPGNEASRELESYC

[17] = biological target: Glucagon receptor (Homo sapiens, UniProt P47871); test: Agonist activity at N-terminal HA-tagged human GCGR expressed in CHO cells co-transfected with pcDNA3.0 assessed as effect on cAMP accumulation incubated for 30 mins by microplate reader analysis; format: functional, cell-based
Sequence of Glucagon receptor (P47871 whole entry): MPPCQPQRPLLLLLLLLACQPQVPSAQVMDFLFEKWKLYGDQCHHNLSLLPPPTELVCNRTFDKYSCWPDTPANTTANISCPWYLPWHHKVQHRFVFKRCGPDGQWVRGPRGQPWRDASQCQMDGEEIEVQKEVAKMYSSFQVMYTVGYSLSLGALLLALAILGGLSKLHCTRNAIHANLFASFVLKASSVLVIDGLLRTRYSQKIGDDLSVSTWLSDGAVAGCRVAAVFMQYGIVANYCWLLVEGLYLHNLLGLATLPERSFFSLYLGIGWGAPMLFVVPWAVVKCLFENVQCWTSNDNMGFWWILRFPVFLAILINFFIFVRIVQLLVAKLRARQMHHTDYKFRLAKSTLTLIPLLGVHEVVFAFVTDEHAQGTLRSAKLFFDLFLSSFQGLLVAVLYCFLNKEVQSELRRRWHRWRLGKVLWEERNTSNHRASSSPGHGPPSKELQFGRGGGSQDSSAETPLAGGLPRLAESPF

[18] = biological target: T1, Glucagon-like peptide 1 receptor; test: Agonist activity at human GLP-1R expressed in HEK293 cells assessed as beta-arrestin1 recruitment incubated for 5 mins by bioluminescence based Envision multiplate reader analysis; format: functional, cell-based
[19] = biological target: T1, Glucagon-like peptide 1 receptor; test: Agonist activity at human GLP-1R expressed in HEK293 cells assessed as beta-arrestin2 recruitment incubated for 5 mins by bioluminescence based Envision multiplate reader analysis; format: functional, cell-based
[20] = test system: Rattus norvegicus; test: Antidiabetic activity in human GLP-1R knockin Sprague-Dawley rat model assessed as increase in rate of glucose disappearance at 1 to 10 mg/kg, po pretreated with compound for 15 mins by IPGTT analysis; format: functional, organism-based; conditions: dose 1-10 mg/kg
[21] = test system: Rattus norvegicus; test: Antidiabetic activity in human GLP-1R knockin Sprague-Dawley rat model assessed as increase in rate of glucose disappearance at 10 mg/kg, po pretreated with compound for 15 mins by IPGTT analysis; format: functional, organism-based
[22] = test system: Rattus norvegicus; test: Antidiabetic activity in human GLP-1R knockin Sprague-Dawley rat model assessed as increase in rate of insulin secretion at 10 mg/kg, po pretreated with compound for 15 mins by IPGTT analysis; format: functional, organism-based

T1 sequence (P43220 whole entry): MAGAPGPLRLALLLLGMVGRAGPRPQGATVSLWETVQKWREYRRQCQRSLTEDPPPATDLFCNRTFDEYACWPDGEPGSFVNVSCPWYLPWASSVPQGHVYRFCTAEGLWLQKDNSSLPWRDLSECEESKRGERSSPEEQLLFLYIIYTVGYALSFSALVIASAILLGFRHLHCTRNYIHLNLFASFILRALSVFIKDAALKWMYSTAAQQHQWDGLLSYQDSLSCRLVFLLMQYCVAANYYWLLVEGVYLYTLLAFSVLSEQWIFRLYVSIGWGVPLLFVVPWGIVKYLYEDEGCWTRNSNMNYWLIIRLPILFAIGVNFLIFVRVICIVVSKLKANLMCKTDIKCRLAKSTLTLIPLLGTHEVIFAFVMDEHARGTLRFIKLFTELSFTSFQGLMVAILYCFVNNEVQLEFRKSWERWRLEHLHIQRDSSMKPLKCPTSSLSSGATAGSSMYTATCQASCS

| SMILES | Activity [1] [%] | EC50 [2] [nM] | inhibition at 10 µM [3] [%] | Activity ([4]; filed as agonist) [%] | Activity [4] [%] | inhibition at 1 µM [5] [%] | Tmax at 24 h [6] [h] | Cmax [7] [ng/mL] | CL/F [8] [mL/min/kg] | AUC(0-inf) [9] [ng·h/mL] | half-life [10] [h] | Fa at 24 h [11] [%] | further results |
| --- | --- | --- | --- | --- | --- | --- | --- | --- | --- | --- | --- | --- | --- |
| O=C(O)c1cc(F)c2nc(CN3CC=C(c4cccc(OCc5ccc(C6CC(F)(F)C6)cc5F)n4)CC3)n(C[C@@H]3CCO3)c2c1 | 82.2 | 0.016 | 58.7 | 45.4 | – | – | – | – | – | – | – | – | – |
| O=C(O)c1ccc2nc(CN3CCN(c4cccc(OCc5ccc(C6CC(F)(F)C6)cc5F)n4)CC3)n(C[C@@H]3CCO3)c2c1 | 66.6 | 0.081 | – | – | 19.9 | – | – | – | – | – | – | – | – |
| O=C(O)c1ccc2nc(CN3CC=C(c4cccc(OCc5ccc(C6CC(F)(F)C6)cc5F)n4)CC3)n(C[C@@H]3CCO3)c2c1 | 88.9 | 0.059 | 74 | 57.9 | – | 4.53 | 0.42 | 22 | 1230 | 67 | 6.68 | 3.63 | – |
| O=C(O)c1ccc2nc(CN3CCC(Oc4cccc(COc5ccc6cnn(CC(F)F)c6c5F)n4)CC3)n(C[C@@H]3CCO3)c2n1 | – | 0.085 | 14.2 | – | – | 5.1 | 0.19 | 38.3 | 2210 | 31.4 | 2.95 | 2.2 | – |
| N#Cc1ccc(OCc2cccc(OC3CCN(Cc4nc5sc(C(=O)O)cc5n4C[C@@H]4CCO4)CC3)n2)c(F)c1 | – | 0.52 | 0.9 | – | – | – | – | – | – | – | – | – | – |
| O=C(O)c1ccc2nc(CN3CC=C(c4cccc(OCc5ccc(C6CC(F)(F)C6)cc5F)n4)CC3)n(C[C@@H]3CCO3)c2n1 | 71.2 | 0.048 | 37.6 | – | 35.5 | 0.6 | 2.67 | 256 | 65.8 | 1380 | 3.32 | 54.2 | Activity [12]: Dose-dependent-effect; EC50 [13]: 22.7 nM; EC50 [14]: > 20000 nM; Activity [15]: Active; EC50 [16]: > 20000 nM; EC50 [17]: > 20000 nM; EC50 [18]: 2020 nM; EC50 [19]: 864 nM; Activity [20]: Active |
| N#Cc1ccc(COc2cccc(C3CCN(Cc4nc5ccc(C(=O)O)cc5n4C[C@@H]4CCO4)CC3)n2)c(F)c1 [DANUGLIPRON] | 81.9 | – | 69.7 | 44.9 | – | 8.4 | 1.33 | 130 | 135 | 655 | 3.61 | 35.1 | Activity [21]: Active; Activity [22]: Active |
| COc1cc(C(=O)O)cc2c1nc(CN1CC=C(c3cccc(OCc4ccc(C5CC(F)(F)C5)cc4F)n3)CC1)n2C[C@@H]1CCO1 | 92.3 | 0.012 | 68.3 | 69.4 | – | – | 0.92 | 31.5 | 1040 | 84 | 2.41 | 2.43 | – |
| COc1cc(C(=O)O)cc2c1nc(CN1CCC(c3cccc(OCc4ccc(C5CC(F)(F)C5)cc4F)n3)CC1)n2C[C@@H]1CCO1 | – | 0.016 | – | – | – | – | 1.67 | 20.2 | 1490 | 61.8 | 1.5 | 1.99 | – |
| O=C(O)c1ccc2nc(Cc3ccc(-c4cccc(OCc5ccc(C6CC(F)(F)C6)cc5F)n4)cc3)n(C[C@@H]3CCO3)c2c1 | 73.5 | 0.093 | – | – | 29.5 | – | – | – | – | – | – | – | – |
